Measured values as given in a melting point compilation (Tetko et al.; mined from patent text by program, amines drawn as free bases though some values may be those of a salt).

Structure (SMILES) | melting point
CCn1c(=O)c2c(nc(/C=C/c3cc(OC)ccc3OC(C)=O)n2C)n(CC)c1=O | 186 to 187 °C
O=C1CCN(c2c(F)cc([N+](=O)[O-])cc2F)CC1 | 130 to 132 °C
CNC(=O)ON=C1N=C(C)C(C)(C)S1 | 123 to 125 °C
NN1CCN(CCc2c[nH]c3ccccc23)CC1 | 115 to 117 °C
CS(=O)(=O)N1CCC(NC(=O)Nc2cccc(F)c2)CC1 | 212 to 214 °C
COc1ccc(Cl)cc1CCC(=O)O | 91 to 92 °C
COc1cc2c(cc1OC)N(C)C(=O)CN=C2c1cncc2ccccc12 | 131 to 135 °C
CCCCCCCCCCCCCCOc1ccc2cc(C(=O)O)oc2c1 | 131 to 135 °C
COc1cc(C2CCN(C[C@H](O)CO)CC2)ccc1Nc1ncc2ccc(-c3cccc(S(=O)(=O)NC(C)(C)C)c3)n2n1 | 192 to 220 °C
CCCCCCC(=O)N1C(C)Cc2ccccc2C1CNC(=O)c1cc(OC)c(OC)c(OC)c1 (stereo not drawn) | 161 to 163 °C
N#Cc1cc(Br)c(C(=O)CCl)s1 | 126 to 128 °C
Cc1cc(C)n(CCOc2cc3c(cc2C)OC2(CC(C)(C)c4cc(O)c(C)cc4O2)CC3(C)C)n1 (stereo not drawn) | 223 to 225 °C
CNC(=S)N1CCSC1c1ccccc1OCCN1CC=C(c2cccc(F)c2)CC1 (stereo not drawn) | 147 to 148 °C
COc1ccc(CCS(N)(=O)=S)cc1 (stereo not drawn) | 186 to 187 °C
COC(=O)CN(C=O)C1c2ccccc2CCC1(C)C (stereo not drawn) | 74 to 75 °C
OCc1nnc(-c2cc3c(OC[C@@H](O)CN4CCC(c5ccc(Cl)c(Cl)c5)CC4)cccc3o2)o1 | 158 to 160 °C

Structure (SMILES) | melting point
CC1=NNC(=O)CC1c1ccc(OC2CCN(C(=O)OC(C)(C)C)CC2)cc1 (stereo not drawn) | 165 to 167 °C
CCCCN(C(=O)C(C)C)c1nnc(C)s1 | 54 to 57 °C
N[C@H]1CC[C@@H](Oc2ccc3[nH]ncc3c2)CC1 | 144 to 146 °C
O=C(Nc1nccs1)c1cn(CC2CCCCC2)c2cc(Cl)ccc12 | 181 to 183 °C
CC(=O)CC(=O)Nc1nc(C)c(C)s1 | 191 to 193 °C
Brc1ccc(N2CCOCC2)cc1 | 118 to 120 °C
Nc1c(OC[C@@H]2CO2)cccc1[N+](=O)[O-] | 107 to 109 °C
OCCOCn1c(Cl)nc2c(Cl)c(Cl)c(Cl)c(Cl)c21 | 168 to 170 °C
CCCCCCCCCN(c1ccccc1)P(=O)(O)O | 64 to 65 °C
CC1=Cc2cccc(S(N)(=O)=O)c2OS1(=O)=O | 204 to 205 °C
Oc1ccc(C(=S)N2CCOCC2)cc1 | 205 °C
COc1cc(OC)nc(C(C)c2ccccc2NC(=O)OC(C)(C)C)n1 (stereo not drawn) | 119 to 121 °C
CCc1cccc(C)c1N1C(=O)C=CC1=O | 84.5 to 85 °C
CC(=O)NC[C@H]1CN(c2ccc(N3CCC4(CC3)NCCO4)c(F)c2)C(=O)O1 | 138 to 140 °C
CCOc1ccc(C=[N+]([O-])C2CCCC2)cc1 | 95.1 °C
N#CCCN1CCC(c2[nH]cc3cc(F)ccc23)CC1 | 100 to 101 °C

The remaining lines, values ahead:

melting point | Structure (SMILES)
195 to 196 °C | CN1C(=O)CC[C@]2(C)c3ccc(Sc4ccc5cc([N+](=O)[O-])ccc5n4)cc3CC[C@@H]12
70 to 72 °C | O=C(Cc1ccc(O)cc1)OCc1ccccc1
165 to 167 °C | NC(=O)c1ccn(-c2ccc(Oc3ccccc3)cc2)n1
188 to 189 °C | Cn1cc(OS(C)(=O)=O)c(=O)c2cc(F)ccc21
133 to 134 °C | COc1ccc(CNc2cccc3nc(-c4cccc(Cl)c4)oc23)cc1OC1CCCC1
191 to 192 °C | Cc1cccc(-c2nc3ccc(Cl)nn3c2-c2ccnc(Nc3ccccc3C)c2)c1
84 to 85 °C | COC1=CCc2cccc(N)c2C1
76 °C | CCOC(=O)C(=O)CC(=O)CC(=O)c1ccc(C)cc1
170 to 171 °C | CC1=C(Cc2ccc(-c3ccc(N(C)C)cc3)cc2)C(=O)c2ccccc2C1=O
182 to 184 °C | Cc1cccc(C(=O)c2[nH]c3cc(Cl)ccc3c2CC(=O)O)c1
198 °C | CC(C)n1c(S(=O)(=O)c2ccc(O)cc2)nc2ccccc21
138 to 140 °C | Cc1ccc(S(=O)(=O)OCC2COc3ccc([N+](=O)[O-])c(C=CC=O)c3O2)cc1 (stereo not drawn)
128 to 130 °C | Nc1nnc(-c2cccc(Oc3cccc(COc4ccc(Cl)c(Cl)c4)c3)c2)s1
233 °C | Nc1ccc(-c2noc(-c3cnn4c(C(F)(F)F)cc(-c5ccc(C(F)(F)F)c(F)c5)nc34)n2)cn1
184 to 185 °C | CONC(=O)Cc1c(C)n(C(=O)c2ccc(Cl)cc2)c2ccc(OC)cc12
96 to 97 °C | C[C@H](N=C(C(=O)N[C@@H](C)c1ccccc1)C(C)(C)C)c1ccccc1
132 to 135 °C | CS(=O)(=O)c1ccc(Cl)c(C(=O)Nc2ccc(-n3nc(C(F)(F)F)cc3C3CC3)cc2)c1
107 to 109 °C | COC(=O)COc1cccc(-c2nc(COc3ccc(COc4nn(-c5ccccc5)cc4C=O)cc3OC)c(C)o2)c1
141 to 143 °C | CCOC(=O)C1=C2COCCN2C(C)=C(C(=O)OC)C1c1ccccc1Cl (stereo not drawn)
121 to 122 °C | COC(=O)c1cc(NC(C)C)c2cc(Cc3ccc(F)cc3)cnc2c1O
165 °C | O=C1NC(=O)C(Cc2ccc(OCCn3ncc4ccccc4c3=O)cc2)S1 (stereo not drawn)

melting point | Structure (SMILES)
201 to 202 °C | Cn1ncc(/C=C/C(=O)Nc2ccc(CN)cc2)c1-c1ccc(F)cc1
209 to 210 °C | Cc1[nH]c(-c2ccc(F)cc2)c(N)c1C(=O)c1ccccc1
146 to 150 °C | CCOc1cc(N(CC)CC)ccc1C1(c2ccc(N(C)C)cc2N(C)C)OC(=O)c2ccccc21 (stereo not drawn)
228 to 229 °C | COc1cc(OC)c(-c2cccs2)cc1/C=C/C(=O)c1ccc(S(=O)(=O)Nc2ccc(Cl)cn2)cc1
188 to 190 °C | CC(=O)N1CC(CCN2CCC(c3c[nH]c4cc(Cl)ccc34)CC2)c2ccccc21 (stereo not drawn)
178 to 180 °C | N#CC=C1OC(=O)c2ccccc21
132 °C | Brc1nc(-c2ccccc2)nc2ccccc12
167 to 168 °C | Cc1cccc2c1oc1c(NC(=O)c3ccccn3)n(C)nc12
178 to 180 °C | O=S(=O)(c1ccc(O)cc1)c1ccc2cc(Br)ccc2c1
185 to 187 °C | Cc1ccc(-c2ccc3c(c2)C=C(C(=O)Nc2ccc(CN4CCN(CCO)CC4)cc2)CC3)cc1
172 to 173 °C | CCOC(=O)C1=C(C)NC(C)=C(C(=O)OCC)C1c1ccccc1/C=C/C#N
205 °C | COC(=O)C1=NNC(C)=C(C(=O)OC)C1c1ccccc1C(F)(F)F (stereo not drawn)
109 °C | COc1cccc2c(Oc3cc(-n4c(=O)cc(C(F)(F)F)n(C)c4=O)c(F)cc3C#N)cccc12
210 °C | CC1C(CCc2ccccc2)SC2=CC=NC3=CC=CC(c4ccccc4)C321 (stereo not drawn)
120 to 122 °C | O=C(C(=O)c1cccc(C(=O)C(=O)c2ccc(Oc3ccc(Br)cc3)cc2)c1)c1ccc(Oc2ccc(Br)cc2)cc1
169 to 172 °C | O=c1[nH]nc(-c2ccccc2SCc2ccccc2)o1
154 to 155 °C | CC(=O)Nc1cccc2ccc(OCC3CC3)cc12
> 280 °C | O=C(Nc1ccc(F)cc1)Nc1nc(Nc2ccc(Cl)cc2)sc1C(=O)c1ccc(Cl)cc1Cl
50 to 54 °C | CC(=O)Cc1ccc(OCc2ccccc2)cc1
277 to 281 °C | O=C(Nc1ccc2nc(S)[nH]c2c1)C(=O)N1CCC(Cc2ccccc2)CC1
